Measured values published in paper PMC12454493, “Insight on novel sulfamoylphenyl pyrazole derivatives as anticancer carbonic anhydrase inhibitors” (Molecular Diversity, 2024).

Columns and labels:
[1] = tested on: TK-10; assay: NCI-60 one-dose SRB screen (Renal Cancer); format: cell-based; details: Homo sapiens, single dose 10 µM, 48 h, read-out: Growth inhibition percent (GI %)
Experimental: (§1) The National Cancer Institute (NCI) Developmental Therapeutic Program (www.dtp.nci.nih.gov) selected the 20 novel synthesized compounds 4a-e, 5a-e, 6a-c, 9a-e, 10 and 11 to test for their anticancer activity at a single dose of 10 µM using SRB assay. […] Supplementary Data S3; Table S1 presents the detailed screening results of the most promising compounds. The preliminary screening’s detailed results for the remaining compounds are elucidated in the (Supplementary Data S3; Table S2).
(§2) The guidelines of the Drug Evaluation Branch’s protocol at the NCI in Bethesda served as the basis for the in vitro anticancer screening assays. at one dose 10 µM against a panel of 60 cancer cell lines. The human tumor cell lines used belonged to nine panels: leukemia, melanoma, lung, colon, CNS, ovarian, renal, prostate and breast cancers using the sulforhodamine B (SRB) assay in a 48 h drug exposure protocol.

[2] = tested on: 786-0; assay: NCI-60 one-dose SRB screen (Renal Cancer); format: cell-based; details: Homo sapiens, single dose 10 µM, 48 h, read-out: Growth inhibition percent (GI %)
Experimental: as §1, §2

[3] = tested on: MCF-7; assay: NCI-60 one-dose SRB screen (Breast Cancer); format: cell-based; details: Homo sapiens, MCF7, single dose 10 µM, 48 h, read-out: Growth inhibition percent (GI %)
Experimental: as §1, §2

[4] = tested on: BT-549; assay: NCI-60 one-dose SRB screen (Breast Cancer); format: cell-based; details: Homo sapiens, single dose 10 µM, 48 h, read-out: Growth inhibition percent (GI %)
Experimental: as §1, §2

[5] = tested on: MDA-MB-231/ATCC; assay: NCI-60 one-dose SRB screen (Breast Cancer); format: cell-based; details: Homo sapiens, single dose 10 µM, 48 h, read-out: Growth inhibition percent (GI %)
Experimental: as §1, §2

[6] = tested on: T-47D; assay: NCI-60 one-dose SRB screen (Breast Cancer); format: cell-based; details: Homo sapiens, T47D, single dose 10 µM, 48 h, read-out: Growth inhibition percent (GI %)
Experimental: as §1, §2

[7] = tested on: HS 578T; assay: NCI-60 one-dose SRB screen (Breast Cancer); format: cell-based; details: Homo sapiens, single dose 10 µM, 48 h, read-out: Growth inhibition percent (GI %)
Experimental: as §1, §2

[8] = tested on: MDA-MB-468; assay: NCI-60 one-dose SRB screen (Breast Cancer); format: cell-based; details: Homo sapiens, single dose 10 µM, 48 h, read-out: Growth inhibition percent (GI %)
Experimental: as §1, §2

[9] = tested on: U251; assay: NCI-60 one-dose SRB screen (CNS Cancer); format: cell-based; details: Homo sapiens, U-251, single dose 10 µM, 48 h, read-out: Growth inhibition percent (GI %)
Experimental: as §1, §2

[10] = tested on: SNB-75; assay: NCI-60 one-dose SRB screen (CNS Cancer); format: cell-based; details: Homo sapiens, single dose 10 µM, 48 h, read-out: Growth inhibition percent (GI %)
Experimental: as §1, §2

[11] = tested on: SF-295; assay: NCI-60 one-dose SRB screen (CNS Cancer); format: cell-based; details: Homo sapiens, single dose 10 µM, 48 h, read-out: Growth inhibition percent (GI %)
Experimental: as §1, §2

[12] = tested on: SF-268; assay: NCI-60 one-dose SRB screen (CNS Cancer); format: cell-based; details: Homo sapiens, single dose 10 µM, 48 h, read-out: Growth inhibition percent (GI %)
Experimental: as §1, §2

[13] = tested on: SF-539; assay: NCI-60 one-dose SRB screen (CNS Cancer); format: cell-based; details: Homo sapiens, single dose 10 µM, 48 h, read-out: Growth inhibition percent (GI %)
Experimental: as §1, §2

[14] = tested on: SNB-19; assay: NCI-60 one-dose SRB screen (CNS Cancer); format: cell-based; details: Homo sapiens, single dose 10 µM, 48 h, read-out: Growth inhibition percent (GI %)
Experimental: as §1, §2

[15] = tested on: NCI-H226; assay: NCI-60 one-dose SRB screen (Non-Small Cell Lung Cancer); format: cell-based; details: Homo sapiens, single dose 10 µM, 48 h, read-out: Growth inhibition percent (GI %)
Experimental: as §1, §2

[16] = tested on: NCI-H460; assay: as above; format: cell-based; details: Homo sapiens, single dose 10 µM, 48 h, read-out: Growth inhibition percent (GI %)
Experimental: as §1, §2

[17] = tested on: NCI-H23; assay: as above; format: cell-based; details: Homo sapiens, single dose 10 µM, 48 h, read-out: Growth inhibition percent (GI %)
Experimental: as §1, §2

[18] = tested on: HOP-92; assay: as above; format: cell-based; details: Homo sapiens, single dose 10 µM, 48 h, read-out: Growth inhibition percent (GI %)
Experimental: as §1, §2

[19] = tested on: A549/ATCC; assay: as above; format: cell-based; details: Homo sapiens, single dose 10 µM, 48 h, read-out: Growth inhibition percent (GI %)
Experimental: as §1, §2

[20] = tested on: NCI-H322M; assay: as above; format: cell-based; details: Homo sapiens, single dose 10 µM, 48 h, read-out: Growth inhibition percent (GI %)
Experimental: as §1, §2

[21] = tested on: HOP-62; assay: as above; format: cell-based; details: Homo sapiens, single dose 10 µM, 48 h, read-out: Growth inhibition percent (GI %)
Experimental: as §1, §2

[22] = tested on: EKVX; assay: as above; format: cell-based; details: Homo sapiens, single dose 10 µM, 48 h, read-out: Growth inhibition percent (GI %)
Experimental: as §1, §2

[23] = tested on: NCI-H522; assay: as above; format: cell-based; details: Homo sapiens, single dose 10 µM, 48 h, read-out: Growth inhibition percent (GI %)
Experimental: as §1, §2

[24] = tested on: IGROV1; assay: NCI-60 one-dose SRB screen (Ovarian cancer); format: cell-based; details: Homo sapiens, IGROV-1, single dose 10 µM, 48 h, read-out: Growth inhibition percent (GI %)
Experimental: as §1, §2

[25] = tested on: NCI/ADR-RES; assay: NCI-60 one-dose SRB screen (Ovarian cancer); format: cell-based; details: Homo sapiens, single dose 10 µM, 48 h, read-out: Growth inhibition percent (GI %)
Experimental: as §1, §2

[26] = tested on: OVCAR-5; assay: NCI-60 one-dose SRB screen (Ovarian cancer); format: cell-based; details: Homo sapiens, single dose 10 µM, 48 h, read-out: Growth inhibition percent (GI %)
Experimental: as §1, §2

[27] = tested on: SK-OV-3; assay: NCI-60 one-dose SRB screen (Ovarian cancer); format: cell-based; details: Homo sapiens, single dose 10 µM, 48 h, read-out: Growth inhibition percent (GI %)
Experimental: as §1, §2

[28] = tested on: OVCAR-8; assay: NCI-60 one-dose SRB screen (Ovarian cancer); format: cell-based; details: Homo sapiens, single dose 10 µM, 48 h, read-out: Growth inhibition percent (GI %)
Experimental: as §1, §2

[29] = tested on: OVCAR-4; assay: NCI-60 one-dose SRB screen (Ovarian cancer); format: cell-based; details: Homo sapiens, single dose 10 µM, 48 h, read-out: Growth inhibition percent (GI %)
Experimental: as §1, §2

[30] = tested on: OVCAR-3; assay: NCI-60 one-dose SRB screen (Ovarian cancer); format: cell-based; details: Homo sapiens, single dose 10 µM, 48 h, read-out: Growth inhibition percent (GI %)
Experimental: as §1, §2

COc1ccc(-c2nn(-c3ccc(S(N)(=O)=O)cc3)cc2C(=O)NNC(N)=S)cc1 [Compound 9c, 2-[3-(4-Methoxyphenyl)-1-(4-sulfamoylphenyl)-1H-pyrazole-4-carbonyl] hydrazine-1-carbothioamide]
inhibition at 10 µM [1]: < 5% | inhibition at 10 µM [2]: < 5% | melting point: 205 to 207 °C | inhibition at 10 µM [3]: < 5% | inhibition at 10 µM [4]: < 5% | inhibition at 10 µM [5]: < 5% | inhibition at 10 µM [6]: < 5% | inhibition at 10 µM [7]: < 5% | inhibition at 10 µM [8]: < 5% | inhibition at 10 µM [9]: < 5% | inhibition at 10 µM [10]: < 5% | inhibition at 10 µM [11]: < 5% | inhibition at 10 µM [12]: < 5% | inhibition at 10 µM [13]: < 5% | inhibition at 10 µM [14]: < 5% | inhibition at 10 µM [15]: < 5% | inhibition at 10 µM [16]: < 5% | inhibition at 10 µM [17]: < 5% | inhibition at 10 µM [18]: < 5% | inhibition at 10 µM [19]: < 5% | inhibition at 10 µM [20]: < 5% | inhibition at 10 µM [21]: < 5% | inhibition at 10 µM [22]: < 5% | inhibition at 10 µM [23]: 8.06% | inhibition at 10 µM [24]: < 5% | inhibition at 10 µM [25]: < 5% | inhibition at 10 µM [26]: < 5% | inhibition at 10 µM [27]: < 5% | inhibition at 10 µM [28]: < 5% | inhibition at 10 µM [29]: < 5% | inhibition at 10 µM [30]: < 5%
